From patent US20020137929A1, “1 - (3-heterocyclylphenyl) isothiourea, -isourea, -guanidine and -amidine herbicidal agents” (Intellectual Property Department, BASF Aktiengesellschaft, priority 1998, published 2002)

Experiments:
[1] = tested on: TRZAWR (Wheat, Winter, cv Riband); test: Preemergence herbicidal evaluation; assay type: in vivo, Triticum aestivum; conditions: rated 4-5 weeks after treatment
Summary of the method: (§1)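 Each species is sown separately in potting soil over roughly an inch of soil before any emergence. The soil surface then receives an aqueous acetone spray delivering about 0.0156 to 0.500 kg/ha of compound. After four to five weeks, injury is scored from 0 to 9 relative to a control.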

[2] = tested on: SAGPY (Arrowhead (Pygmaea)); test: Preemergence weed control under flooded paddy conditions; assay type: in vivo, Sagittaria pygmaea; conditions: rated 3-4 weeks after treatment
Summary of the method: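 Flooded-pot preemergence screen with silt loam and seeds in the upper 0.5 cm. Dose about 0.0313 to 0.500 kg/ha, delivered into flood water; visual 0-9 score after 3 to 4 weeks.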

[3] = tested on: ABUTH (Velvetleaf); test: Preemergence herbicidal evaluation; assay type: in vivo, Abutilon theophrasti; conditions: rated 4-5 weeks after treatment
Summary of the method: as §1

[4] = tested on: ECHORC (Watergrass (Calif.)); test: Preemergence weed control under flooded paddy conditions; assay type: in vivo, Echinochloa oryzoides; conditions: rated 3-4 weeks after treatment
Summary of the method: (§2)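 First, seeds or propagules go into the top 0.5 cm of silt loam; next, water is held 1.5 to 3 cm over the soil; then compound (50/50 acetone/water) is pipetted into it at about 0.0313 to 0.500 kg/ha; finally plants are rated visually 0-9 after three to four weeks.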

[5] = tested on: CYPIR (Rice Flatsedge); test: as above; assay type: in vivo, Cyperus iria; conditions: rated 3-4 weeks after treatment
Summary of the method: as §2

[6] = rate 0.0625 kg/ha, rating scale 0-9
[7] = rate 0.1250 kg/ha, rating scale 0-9
[8] = rate 0.2500 kg/ha, rating scale 0-9

Structure (SMILES) | herbicidal effect rating, SAGPY ([2]; 0.0313 kg/ha) | herbicidal effect rating, SAGPY ([2]; 0.0625 kg/ha) | herbicidal effect rating, SAGPY ([2]; 0.1250 kg/ha) | herbicidal effect rating, SAGPY ([2]; 0.2500 kg/ha) | herbicidal effect rating, ECHORC ([4]; 0.0313 kg/ha) | herbicidal effect rating, ECHORC ([4]; 0.0625 kg/ha) | herbicidal effect rating, ECHORC ([4]; 0.1250 kg/ha) | herbicidal effect rating, ECHORC ([4]; 0.2500 kg/ha) | herbicidal effect rating, CYPIR ([5]; 0.0313 kg/ha) | herbicidal effect rating, CYPIR ([5]; 0.0625 kg/ha) | herbicidal effect rating, CYPIR ([5]; 0.1250 kg/ha) | herbicidal effect rating, CYPIR ([5]; 0.2500 kg/ha) | Preemergence herbicidal rating TRZAWR ([1]; 0.0156 kg/ha) | Preemergence herbicidal rating TRZAWR ([1]; 0.0313 kg/ha) | Preemergence herbicidal rating TRZAWR ([1]; 0.0625 kg/ha) | Preemergence herbicidal rating ABUTH ([3]; 0.0156 kg/ha) | Preemergence herbicidal rating ABUTH ([3]; 0.0313 kg/ha) | Preemergence herbicidal rating ABUTH ([3]; 0.0625 kg/ha) | Preemergence herbicidal rating TRZAWR ([1]; 0.1250 kg/ha) | Preemergence herbicidal rating TRZAWR ([1]; 0.2500 kg/ha) | other results
COCCN1C(=O)CSC1=Nc1cc(-n2c(=O)cc(C(F)(F)F)n(C)c2=O)c(F)cc1Cl [Compound 155, 3-{4-Chloro-2-fluoro-5-{[3-(2-methoxyethyl)-4-oxo-2-thiazolidinylidene]amino}phenyl}-1-methyl-6-(trifluoromethyl)-2,4(1H,3H)-pyrimidinedione] | 0.0 | 0.0 | 0.0 | 0.0 | 4.0 | 4.0 | 4.0 | 4.0 | 0.0 | 0.0 | 0.0 | 0.0 | – | – | – | – | – | – | – | – | Preemergence herbicidal rating TRZAWR [1, 6]: 0.0; Preemergence herbicidal rating TRZAWR [1, 7]: 0.0; Preemergence herbicidal rating TRZAWR [1, 8]: 0.0; Preemergence herbicidal rating ABUTH [3, 6]: 2.0; Preemergence herbicidal rating ABUTH [3, 7]: 4.0; Preemergence herbicidal rating ABUTH [3, 8]: 7.0
COC(=O)CSCCN1C(=O)CSC1=Nc1cc(-n2c(=O)cc(C(F)(F)F)n(C)c2=O)c(F)cc1Cl [Compound 158, Methyl {{2-{2-{{2-chloro-5-[3,6-dihydro-3-methyl-2,6-dioxo-4-(trifluoromethyl)-1(2H)-pyrimidinyl]-4-fluorophenyl}imino}-4-oxo-3-thiazolidinyl}ethyl}-thio}acetate] | 4.0 | 5.0 | 6.0 | 9.0 | 9.0 | 9.0 | 9.0 | 9.0 | 9.0 | 9.0 | 9.0 | 9.0 | 1.0 | 4.0 | 5.0 | 9.0 | 9.0 | 9.0 | – | – | Preemergence herbicidal rating TRZAWR [1, 7]: 7.0; Preemergence herbicidal rating TRZAWR [1, 8]: 7.0; Preemergence herbicidal rating ABUTH [3, 7]: 9.0; Preemergence herbicidal rating ABUTH [3, 8]: 9.0
C=CCN1C(=O)C(CC(=O)NO)SC1=Nc1cc(-n2c(=O)cc(C(F)(F)F)n(C)c2=O)c(F)cc1Cl (stereo not drawn) [Compound 161, 3-Allyl-2-{{2-chloro-5-[3,6-dihydro-3-methyl-2,6-dioxo-4-(trifluoromethyl)-1(2H)-pyrimidinyl]-4-fluorophenyl}imino}-4-oxo-5-thiazolidineacetohydroxamic acid] | 2.0 | – | 6.0 | 9.0 | 0.0 | 0.0 | 2.0 | 4.0 | 3.0 | 4.0 | 5.0 | 6.0 | 0.0 | 0.0 | 1.0 | 0.0 | 1.0 | 2.0 | 4.0 | 7.0 | Preemergence herbicidal rating TRZAWR ([1]; 0.5000 kg/ha): 9.0; Preemergence herbicidal rating ABUTH ([3]; 0.1250 kg/ha): 9.0; Preemergence herbicidal rating ABUTH ([3]; 0.2500 kg/ha): 9.0; Preemergence herbicidal rating ABUTH ([3]; 0.5000 kg/ha): 9.0
CN1C(=O)C(CC(=O)NO)SC1=Nc1cc(-n2c(=O)cc(C(F)(F)F)n(C)c2=O)c(F)cc1Cl (stereo not drawn) [Compound 162, 2-{{2-Chloro-5-[3,6-dihydro-3-methyl-2,6-dioxo-4-(trifluoromethyl)-1(2H)-pyrimidinyl]-4-fluorophenyl}imino}-3-methyl-4-oxo-5-thiazolidineacetohydroxamic acid] | 0.0 | 3.0 | 3.0 | 3.0 | 6.0 | 7.0 | 8.0 | 8.0 | 5.0 | 6.0 | 6.0 | 9.0 | 0.0 | 3.0 | 7.0 | 9.0 | 9.0 | 9.0 | 7.0 | 9.0 | Preemergence herbicidal rating ABUTH ([3]; 0.1250 kg/ha): 9.0; Preemergence herbicidal rating ABUTH ([3]; 0.2500 kg/ha): 9.0
Cn1c(C(F)(F)F)cc(=O)n(-c2cc(N=C3SCC(=O)N3CC(F)(F)F)c(Cl)cc2F)c1=O [Compound 163, 3-{4-Chloro-2-fluoro-5-{[4-oxo-3-(2,2,2-trifluoroethyl)-2-thiazolidinylidene]amino}phenyl}-1-methyl-6-(trifluoromethyl)-2,4(1H,3H)-pyrimidinedione] | 2.0 | 3.0 | 6.0 | 7.0 | 9.0 | 9.0 | 9.0 | 9.0 | 6.0 | 7.0 | 9.0 | 9.0 | 0.0 | 0.0 | 3.0 | 9.0 | 9.0 | 9.0 | 7.0 | 7.0 | Preemergence herbicidal rating ABUTH ([3]; 0.1250 kg/ha): 9.0; Preemergence herbicidal rating ABUTH ([3]; 0.2500 kg/ha): 9.0
C#CC(C)N1C(=O)CSC1=Nc1cc(-n2c(=O)cc(C(F)(F)F)n(C)c2=O)c(F)cc1Cl (stereo not drawn) [Compound 165, 3-{4-Chloro-2-fluoro-5-{[3-(1-methyl-2-propynyl)-4-oxo-2-thiazolidinylidene]amino}phenyl}-1-methyl-6-(trifluoromethyl)-2,4(1H,3H)-pyrimidinedione] | 4.0 | 5.0 | 4.0 | 7.0 | 9.0 | 9.0 | 9.0 | 9.0 | 6.0 | 7.0 | 9.0 | 9.0 | 0.0 | 0.0 | 0.0 | 0.0 | 0.0 | 0.0 | 1.0 | 2.0 | Preemergence herbicidal rating TRZAWR ([1]; 0.5000 kg/ha): 4.0; Preemergence herbicidal rating ABUTH ([3]; 0.1250 kg/ha): 9.0; Preemergence herbicidal rating ABUTH ([3]; 0.2500 kg/ha): 9.0; Preemergence herbicidal rating ABUTH ([3]; 0.5000 kg/ha): 9.0
CCCN1C(=O)CSC1=Nc1cc(-n2c(=O)cc(C(F)(F)F)n(C)c2=O)c(F)cc1Cl [Compound 171, 3-{4-Chloro-2-fluoro-5-[(4-oxo-3-propyl-2-thiazolidinylidene)amino]phenyl}-1-methyl-6-(trifluoromethyl)-2,4 (1H, 3H)-pyrimidinedione] | 6.0 | 7.0 | 8.0 | 9.0 | 8.0 | 9.0 | 9.0 | 9.0 | 3.0 | 9.0 | 9.0 | 9.0 | 2.0 | 3.0 | 6.0 | 9.0 | 9.0 | 9.0 | 6.0 | 8.0 | Preemergence herbicidal rating ABUTH ([3]; 0.1250 kg/ha): 9.0; Preemergence herbicidal rating ABUTH ([3]; 0.2500 kg/ha): 9.0
